pIC50: −log10 of the molar value.
Experiments:
[1] = tested on: MOML-13 acute myeloid leukemia (AML) cells; assay: In vitro differentiation, CD14 and CD11b staining, FACS; type: cell-based, human; conditions: 100 nM, 72 hours, vs DMSO, anti-CD14 and CD11b (FIG. 8)
Text: (§1) The side-effects associated with these DHODH inhibitors are believed to be due to off-target activities such as kinase inhibition [21; 22]. […] The antiviral compound GSK983 was recently reported as a DHODH inhibitor [23]. […] FACS analysis was done on FACSCalibur (FIG. 8).

[2] = subjects with solid tumors [24]; cited from earlier work
[3] = biological target: panel of biologically important human kinases; assay: Kinase panel; type: biochemical; conditions: off-target panel
Text: as §1

[4] = biological target: T1, DHODH (mitochondria isolated from K562 cells) (Homo sapiens, UniProt Q02127); assay: DHODH activity with purified mitochondria as enzyme source; type: biochemical; conditions: 30 minutes of treatment (FIG. 2c)
T1 construct: Mitochondria were isolated from K562 cells in log phase growth with a Dounce homogenizer; endogenous in cells; host or cells: K562 cells (isolated mitochondria)
T1 sequence (Q02127 whole entry): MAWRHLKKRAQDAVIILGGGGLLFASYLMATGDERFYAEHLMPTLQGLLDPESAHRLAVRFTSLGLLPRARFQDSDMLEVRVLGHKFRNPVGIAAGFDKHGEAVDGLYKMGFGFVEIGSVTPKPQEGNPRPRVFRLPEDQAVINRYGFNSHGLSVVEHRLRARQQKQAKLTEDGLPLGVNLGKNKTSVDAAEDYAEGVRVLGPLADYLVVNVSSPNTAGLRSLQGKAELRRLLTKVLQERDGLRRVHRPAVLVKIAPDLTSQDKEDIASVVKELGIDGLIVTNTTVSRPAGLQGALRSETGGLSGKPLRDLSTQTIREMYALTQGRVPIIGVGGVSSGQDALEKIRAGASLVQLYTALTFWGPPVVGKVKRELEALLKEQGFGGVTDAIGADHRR

prohibitin = assay: Pull-down with Cpd 1-linked Sepharose beads, Western blot (control protein); type: binding, human; conditions: Western blot (FIG. 2a)
Protocol: Western Blot Analysis. Cells were treated with test compounds for 24 to 48 hours as indicated in the Results section. Subsequently, the conditioned medium was harvested by mixing with equal volume of 2×SDS-PAGE sample buffer (Bio-Rad). Whole-cell extracts were obtained by lysing cells either directly in 1×SDS-PAGE sample buffer (Bio-Rad) or in M-PER lysis buffer containing 150 mmol/L NaCl, 2 mmol/L EDTA and 1× Halt protease inhibitors (Pierce, Rockford, Ill.). Proteins in the samples were resolved on a Tris-glycine Criterion gel (Bio-Rad) and transferred onto a 0.45 μm nitrocellulose membrane. The membranes were then immunoblotted with specific antibodies indicated in the Results section. Antibody (C1) specific for VEGFA was purchased from Santa Cruz Biotechnologies, CA (1:200 dilution); Antibody specific for human β-actin was purchased from Abcam (1:10000 dilution); Antibody specific for V5-tag was purchased from Invitrogen (1:5000 dilution). Antibody specific for DHODH was purchased from Proteintech (Cat #: 14877-1-AP, 1:500 dilution); and antibody specific for human prohibitin was purchased from Thermo Scientific (Cat #: PA5-12274 and PA5-14133, 1:1000 dilution). […] The expression levels of proteins were detected with Odyssey (LI-COR) or using enhanced chemiluminescence (Pierce, Rockford, Ill.). […]

[5] = tested on: de novo pyrimidine nucleotide synthesis in HT1080 cells; assay: 15N-glutamine tracing study: pyrimidine nucleotide synthesis metabolites by LC-MS/MS; type: cell-based, human
Protocol: HT1080 cells in log phase growth were seeded in 10 cm dishes (4×10^6 cells/dish) and cultured in regular DMEM supplemented with 10% fetal bovine serum (FBS), penicillin (50 IU/mL), and streptomycin (50 μg/mL). After overnight incubation, the culture medium was replenished with glutamine free DMEM containing 1 g/L glucose, 10% fetal bovine serum (FBS), penicillin (50 IU/mL), streptomycin (50 μg/mL) and 1 mM ^15N-glutamine (Sigma, Cat #: 490024). After culturing for the indicated time in the presence of compounds or vehicle control (0.5% DMSO), the cells were washed once with cold PBS (5 mL) and harvested and lysed in cold distilled H2O (0.5 mL) with −80° C. methanol (1 mL) using a plastic cell scraper. The cell lysates were then centrifuged at 10,000×g for 15 minutes at 4° C., and supernatant collected for LC-MS/MS analysis of the ^15N-labelled de novo pyrimidine synthesis metabolites.
LC-MS/MS Detection of Metabolites. Quantification of ^15N-labelled de novo pyrimidine synthesis metabolites was carried out on an Accela pump and a PAL auto-sampler coupled to a TSQ Quantum Ultra mass spectrometer. The mass spectrometer was equipped with a heated electrospray ionization source operated in negative-ion mode (Thermo Fisher Scientific, Waltham, Mass.). The ion spray voltage was set at 2500 V, capillary temperature at 350° C., vaporizer temperature at 300° C.; sheath gas pressure at 50 units and auxiliary gas pressure at 5 units. A Thermo Fisher Scientific Hypercab column (3μ, 50×2.1 mm) was used and maintained at 50° C. for metabolite separation. Mobile phase A was 10 mM NH4HCO3 in water, pH 9.4, and mobile phase B was 10 mM NH4HCO3 in ACN-water (9:1). The flow rate was set at 0.50 mL/min.

HT1080 cells = assay: S phase cell cycle delay; type: cell-based, human; conditions: prevented by uridine or cytidine (FIG. 1e)
[6] = tested on: HL-60 cells (human promyelocytic leukemia cells); assay: In vitro combination assay with HL-60 cells (Cell Titer Glo); type: cell-based; conditions: Homo sapiens, single agent, 111 nM, 72 hours, read-out: proliferative inhibition
Protocol: In vitro Combination Assay with HL-60 cells. […] HL-60 cells are reported to express the wild-type IDH2 gene/protein. […] Concentrations of enasidenib were tested at: 0, 0.1, 0.3, 1.3, 6.4, 32, 160, 800, 4,000 and 20,000 nM. The combinations were evaluated in a full checkerboard titration. The extent of proliferation at 72 hours was determined by addition of Cell Titer Glo, and the percent inhibition calculated as referenced to vehicle/DMSO treated HL-60 cells.

MOLM-13 AML cells = assay: Leukemia cell proliferation, comparison of DHODH inhibitors; type: cell-based; conditions: Homo sapiens, MOLM-13, 96 h, proliferation (FIG. 4d)
[7] = tested on: panel of 240 tumor cell lines; assay: Tumor cell line panel proliferation (CellTiter-Glo); type: cell-based; conditions: IC50≤2 μM (FIG. 4a)
Protocol: Determination of ELISA EC50 and Cytotoxicity CC50: All ELISAs were performed using commercially available ELISA kits (R&D Systems) according to the manufacturer's instructions. The screen of 240 cell lines were performed in Crown Bioscience (Shanghai, China). […] Data generated from ELISA or cytotoxicity studies were plotted with Prism software, with the Y-axis typically representing the % inhibition and the X-axis representing log compound concentration. A sigmoid dose response with a variable slope regression curve was generated for each compound. Maximal inhibition was set at 100% and minimal at 0%. EC50 and CC50 values were automatically calculated after curve fitting using the Prism software.

[8] = cells treated 100 nm for 8 hours in presence of 15N-glutamine, BLDL = Below Detection Limits

## COc1ccc([C@H]2c3[nH]c4ccc(Cl)cc4c3CCN2C(=O)Oc2ccc(Cl)cc2)cc1 [Cpd 1, 4-chlorophenyl (S)-6-chloro-1-(4-methoxyphenyl)-1,3,4,9-tetrahydro-2H-pyrido[3,4-b]indole-2-carboxylate]
[1]
  in vitro differentiation: induces in vitro differentiation
[2]
  myeloid suppression: did not show myeloid suppression
[3]
  kinase enzyme activity: lack of inhibition of kinase enzyme activity
[4]
  inhibition of DHODH activity (orotate production by LC-MS/MS): more potently than did teriflunomide and with similar potency as brequinar
prohibitin
  binding of prohibitin to Cpd 1-linked beads after preincubation with free compound: not blocked
[5]; HT1080 cells, LCMS (FIG. 1b)
  de novo pyrimidine synthesis (15N-labelled CTP, UTP and UMP): inhibits de novo pyrimidine synthesis
[5]; cells treated 100 nm for 8 hours in presence of 15N-glutamine
  ^15N-Orotate: 44.8 ± 6.1 µM
[5]; [8]
  ^15N-DHO: 18.1 ± 5.5 µM
  ^15N-UMP: BLDL
[5]; co-treatment with pyrazofurin-MP, HT1080 cells (FIG. 1c)
  pyrazofurin-MP-induced increase of 15N-orotate: blocked
HT1080 cells
  S phase cell cycle: induced S phase cell cycle delay
[6]
  inhibition at 0.111 µM: ~20%
MOLM-13 AML cells
  pIC50: ~9.00
[7]; 32/56 lines
  hematopoietic lines sensitive: 57%
[7]; 34/184 lines
  solid tumor lines sensitive: 18%

Reference: US11458126B2, “DHODH inhibitor for use in treating hematologic cancers” (PTC THERAPEUTICS, INC., priority 2017, dated 2022)
